Each structure is given as a SMILES string. Where “and” joins values, the source holds several entries; their conditions need not be identical. Equal values may be shown once. Entries after “also recorded” stand apart in the source; their conditions may differ.

The subject of one experiment is MS-1 cells. The experiment is described as follows: XTT viability assay, MS-1 cells. Format: cell-based. As to conditions: MS-1 (p53 mutant); 96 hours. The procedure: (§1) Cell viability assays were performed using Cell Proliferation Kit II (XTT) (Roche) according to the manufacturer's instructions and BH3 profiling was described in Pallis et al. (36). Synergy testing was performed using Compusyn and Synergyfinder (28, 29).

The next experiment concerns MKL-1 MCC cells. The experiment is described as follows: XTT cell viability assay and synergy testing, MKL-1 cells. Format: cell-based. As to conditions: 96 hours; for sensitivity of MKL-1 cells to MDM2 inhibitor (XTT viability): MKL-1 (p53 wild type); for Response-rep1 / Response-rep2: Lenalidomide 0 nM; for Response: relative viability vs untreated; for relative viability (XTT), untreated = 1: combinations with a fixed amount of Lenalidomide (5 uM), replicate columns. The procedure: as §1
The XTT assay was performed to determine the relative viability (% response) normalized to untreated cells.

In a further experiment the test system is MKL-1 MCC xenografts. The experiment is described as follows: Xenograft efficacy study. As to conditions: individual animals, oral daily, HDM201 40 mg/kg and/or lenalidomide 50 mg/kg; for Tumor Volume Change, Abs Ch = T − T0: tumor volumes in mm3.
A further experiment concerns p53. The experiment is described as follows: Western blot of p53 response in IMR90-p53DD cells. The class given is cell-based, human. The note with it: IMR90 cells expressing p53DD, Nutlin-3 1 μM, 24 hours.
The target in the next experiment is CK1α (Homo sapiens, UniProt P48729). The experiment is described as follows: Western blot of CK1α protein levels in MKL-1 cells. As to conditions: IMiD 10 μM. The class given is cell-based.
Chain of CK1α (P48729 whole entry): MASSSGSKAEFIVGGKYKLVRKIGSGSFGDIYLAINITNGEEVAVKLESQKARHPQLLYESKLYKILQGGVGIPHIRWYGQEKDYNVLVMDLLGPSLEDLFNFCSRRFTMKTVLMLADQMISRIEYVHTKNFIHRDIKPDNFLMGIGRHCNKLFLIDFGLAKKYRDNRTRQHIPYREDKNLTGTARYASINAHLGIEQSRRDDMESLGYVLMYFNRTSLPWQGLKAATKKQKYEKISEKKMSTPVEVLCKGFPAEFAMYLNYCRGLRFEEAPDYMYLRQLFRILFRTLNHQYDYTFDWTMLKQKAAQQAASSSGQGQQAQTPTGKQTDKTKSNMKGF

Method for CK1α: (§2) Confluent cultures of cells were washed with ice-cold phosphate-buffered saline (PBS) and resuspended in EBC lysis buffer (50 mM Tris, pH 8.0, 150 mM NaCl, 0.5% NP-40, 1:10,000-mercaptoethanol, 0.5 mM EDTA) for 10 min on ice and then centrifuged. Clarified lysates were incubated overnight with antibodies and magnetic protein A/G beads (PureProteome magnetic beads, EMD Millipore). […] Quantitative western blotting was performed using the Odyssey near-infrared system (Li-Cor Biotechnology).
From the text for MKL-1 MCC xenografts: The study was terminated when the tumor volume reached the maximum permissible size of 2000 mm3.
Method for p53: as §2

On to `CC(C)[C@@H](CS(=O)(=O)C(C)C)N1C(=O)[C@@](C)(CC(=O)O)C[C@H](c2cccc(Cl)c2)[C@H]1c1ccc(Cl)cc1` [AMG232], for which the “sensitivity of MS-1 cells to MDM2 inhibitor (XTT viability)” value in the experiment with MS-1 cells was “not MS-1 cells were sensitive”. The “sensitivity of MKL-1 cells to MDM2 inhibitor (XTT viability)” value in the experiment on MKL-1 MCC cells is recorded as “sensitive”.

As for `COc1ncc(-c2nc3c(n2C(C)C)[C@H](c2ccc(Cl)cc2)N(c2cc(Cl)cn(C)c2=O)C3=O)c(OC)n1` [HDM201, (S)-5-(5-Chloro-1-methyl-2-oxo-1,2-dihydro-pyridin-3-yl)-6-(4-chloro-phenyl)-2-(2,4-dimethoxy-pyrimidin-5-yl)-1-isopropyl-5,6-dihydro-1H-pyrrolo[3,4-d]imidazol-4-one], the “Tumor Volume Change, % Ch = (T − T0)/T0” value in the experiment with MKL-1 MCC xenografts (day 0) was 0.00%; in the experiment with MKL-1 MCC xenografts (day 4) it was 168.68% and 25.53% and 16.64% and 93.53% and 6.55% and 29.08% and 14.67% and 11.44%; with MKL-1 MCC xenografts (day 7), 392.40% and 107.65% and 56.29% and 123.49% and 37.00% and 27.47% and 30.43% and 28.15%; in the experiment on MKL-1 MCC xenografts (day 11) it was 465.37% and 122.53% and 125.88% and 248.58% and 101.24% and 14.09% and 37.76% and 61.17%; with MKL-1 MCC xenografts (day 14) it was 597.67% and 128.4% and 191.55% and 295.64% and 94.41% and 41.69% and 77.45% and 56.59%; in the experiment on MKL-1 MCC xenografts (day 18), 741.47% and 4165.70% and 234.58% and 350.27% and 114.06% and 20.72% and 81.45% and 83.83%. In addition, the “Tumor Volume Change, Abs Ch = T − T0” value is 0.00 in the experiment with MKL-1 MCC xenografts (day 0); 302.89 and 66.12 and 32.34 and 133.99 and 10.51 and 44.16 and 21.14 and 14.26 with MKL-1 MCC xenografts (day 4); 704.61 and 278.82 and 109.40 and 176.91 and 59.41 and 41.71 and 43.86 and 35.09 in the experiment on MKL-1 MCC xenografts (day 7); 835.64 and 317.36 and 244.65 and 356.12 and 162.53 and 21.39 and 54.43 and 76.25 with MKL-1 MCC xenografts (day 11); 1073.19 and 332.66 and 372.29 and 423.53 and 151.58 and 63.30 and 111.64 and 70.55 in the experiment with MKL-1 MCC xenografts (day 14); 1331.39 and 429.17 and 455.90 and 501.79 and 183.12 and 31.46 and 117.41 and 104.49 in the experiment on MKL-1 MCC xenografts (day 18). For the same compound, the Response-rep1 with MKL-1 MCC cells (HDM201 50 nM) is reported as 90.76%; with MKL-1 MCC cells (HDM201 100 nM), 75.8%; in the experiment on MKL-1 MCC cells (HDM201 150 nM), 53.3961%; in the experiment on MKL-1 MCC cells (HDM201 180 nM), 33.32%. Moreover, the Response-rep2 in the experiment with MKL-1 MCC cells (HDM201 50 nM) is listed as 92.94%; with MKL-1 MCC cells (HDM201 100 nM) it was 77.72%; in the experiment on MKL-1 MCC cells (HDM201 150 nM), 61.84%; in the experiment on MKL-1 MCC cells (HDM201 180 nM), 40.87%. The Response with MKL-1 MCC cells (HDM201 50 nM alone) is given as 93.9107%; in the experiment on MKL-1 MCC cells (HDM201 100 nM alone), 90.5417%; with MKL-1 MCC cells (HDM201 150 nM alone) it was 94.8184%; with MKL-1 MCC cells (HDM201 180 nM alone) it was 87.8557%.

Turning to `COc1ccc(C2=N[C@@H](c3ccc(Cl)cc3)[C@@H](c3ccc(Cl)cc3)N2C(=O)N2CCNC(=O)C2)c(OC(C)C)c1` [Nutlin-3], the “sensitivity of MS-1 cells to MDM2 inhibitor (XTT viability)” value in the experiment with MS-1 cells is listed as “not MS-1 cells were sensitive”. Also, the p53 response entry in the experiment on p53 is “does not elicit p53 response”; in the experiment with p53 (listed as nutlin-3) it was “did not increase p53, p-p53 and PUMA levels”. The “sensitivity of MKL-1 cells to MDM2 inhibitor (XTT viability)” value in the experiment with MKL-1 MCC cells is “sensitive”. For the same compound, the Response in the experiment on MKL-1 MCC cells (Nutlin-3 1250 nM alone) is 96.8309% and 82.16%; in the experiment on MKL-1 MCC cells (Nutlin-3 2500 nM alone), 65.56% and 72.5696%; with MKL-1 MCC cells (Nutlin-3 3750 nM alone) it was 44.2% and 63.6648%; in the experiment with MKL-1 MCC cells (Nutlin-3 4500 nM alone) it was 41.19% and 56.8421%.

For `COc1cc(C(=O)O)ccc1NC(=O)[C@@H]1N[C@@H](CC(C)(C)C)[C@](C#N)(c2ccc(Cl)cc2F)[C@H]1c1cccc(Cl)c1F` [RG7388], the “sensitivity of MS-1 cells to MDM2 inhibitor (XTT viability)” value in the experiment on MS-1 cells is recorded as “not MS-1 cells were sensitive”. For the same compound, the “sensitivity of MKL-1 cells to MDM2 inhibitor (XTT viability)” value with MKL-1 MCC cells is “sensitive”. Further, the “relative viability (XTT), untreated = 1” value in the experiment on MKL-1 MCC cells (Nutlin-3 or RG7388 level 25 (unit not given)) is 0.7819 and 0.7111 and 0.8222; in the experiment on MKL-1 MCC cells (Nutlin-3 or RG7388 level 50 (unit not given)) it was 0.6836 and 0.5814 and 0.6885; with MKL-1 MCC cells (Nutlin-3 or RG7388 level 75 (unit not given)), 0.553 and 0.4338 and 0.5431; with MKL-1 MCC cells (Nutlin-3 or RG7388 level 90 (unit not given)) it was 0.4663 and 0.3695 and 0.5108.

Regarding `CNc1ncc(-n2nc(N)c3cc(F)c(-c4ccc(O)c5ccccc45)cc32)c(Cl)c1C` [SC-24-UR99, 4-(3-amino-1-(4-chloro-5-methyl-6-(methylamino)pyridin-3-yl)-5-fluoro-1H-indazol-6-yl)naphthalen-1-ol], the Response in the experiment with MKL-1 MCC cells (SC-24-UR99 50 nM alone) is 103.6933% and 100.5561%; in the experiment on MKL-1 MCC cells (SC-24-UR99 100 nM alone), 99.5168% and 105.263%; with MKL-1 MCC cells (SC-24-UR99 150 nM alone), 99.3633% and 93.4308%; in the experiment with MKL-1 MCC cells (SC-24-UR99 180 nM alone), 92.5016% and 89.8385%.

On to `Nc1cccc2c1C(=O)N(C1CCC(=O)NC1=O)C2=O` (stereo not shown) [pomalidomide], for which, on CK1α, the CK1α protein levels entry is “did not reduce CK1α protein levels; also recorded: to a lesser degree”.

Consider `O=C1CCC(N2C(=O)c3ccccc3C2=O)C(=O)N1` (stereo not shown) [thalidomide], for which, on CK1α, the CK1α protein levels result was “did not reduce CK1α protein levels; also recorded: not thalidomide”.

The values above are taken from patent US12115151B2, “Method of treatment of p53 WT tumors” (Dana-Farber Cancer Institute, Inc., priority 2018, dated 2024).
